According to patent US20260242738A1, “ALK5 INHIBITORS FOR EFFICIENT DERIVATION OF MESENCHYMAL STEM CELLS FROM EMBRYONIC STEM CELLS” (SCRIPPS HEALTH, priority 2022, published 2026):
Several values for one entry are separate records, joined by “and”; a condition that tells them apart may be missing. Equal entries are not always repeated. Entries after “also recorded” stand apart in the source; their conditions may differ.

Columns and labels:
[1] = system: ex vivo osteoarthritic cartilage explants; assay: Ex vivo human osteoarthritic cartilage defect repair with fibrin-ECM constructs or pellets; format: cell-based; details: implanted as hydrogel or pellets, 3 weeks, serum-free chondrogenic medium with TGFβ3 10 ng/ml
Experimental: Monolayer cultured ES-MSC were suspended in a hydrogel wafer composed of collagen II (Innovative Research Inc. Novi, MI), hyaluronate (Supartz FX sodium hyaluronate, Seikagaku Corp. Tokyo, Japan), chondroitin sulfate (Sigma-Aldrich) and fibrin (Baxter Healthcare, Deerfield, IL) at a density of 20×10^6 cells per ml. The fibrinogen and thrombin components were prepared separately. To each fibrinogen component, 2 mg/ml sodium hyaluronate, 2 mg/ml chondroitin sulfate and 6 mg/ml collagen II was added (2× concentration of final). Cells were added to the thrombin component at a density of 40×10^6 cells per ml. Thrombin and fibrinogen components in individual syringes were attached to a Baxter DUO mixing syringe and extruded to form the coagulated constructs. The constructs were either directly implanted into ex vivo cartilage tissue or coagulated in 6 well tissue culture plates for 4 to 8 minutes before 4-6 ml of chondrogenic medium was added. To prevent shrinkage of the constructs during culture, the gels were held on AdminPatch microneedle arrays (AdminMed, Sunnyvale, CA) for the duration of their culture.
Osteochondral tissues were obtained from patients ranging between 60 to 70 years of age undergoing total knee arthroplasty within 4-6 hours of surgery (approved by Scripps Institutional Review Board) as previous described. Cartilage disks (6 mm in diameter and ~2-3 mm thick) were harvested from the osteochondral specimens using a sterile dermal punch. The cartilage tissue was cultured in medium consisting of DMEM (Mediatech Inc., Manassas, VA) supplemented with 10% calf serum (Omega Scientific Inc., Tarzana, CA) and 1% Penicillin-Streptomycin-Gentamycin (Life Technologies, Carlsbad, CA). Cartilage disks were maintained in 6-well plates (2-4 per well) in 8 ml medium for 72 hours before creation of the surgical defect. A flame-sterilized stainless-steel burr was used create defects approximately 2×2 mm wide and 0.5 to 1 mm deep. These defects were filled with pellets or hydrogel constructs trimmed to size using 2 mm dermal biopsy punches. […]

[2] = system: HADC100 ESC; assay: Flow cytometry of MSC surface markers after ESC to MSC differentiation with ALK-5 inhibitors; format: cell-based, human; set-up: key to CD90 surface marker expression level / CD105 surface marker expression level / CD34 surface marker expression level / CD45 surface marker expression level / CD73 surface marker expression level: % cells positive relative to isotype control background; details: for triple positive for CD73, CD90 and CD105: co-expression analysis; for CD90 surface marker expression level / CD34 surface marker expression level / CD45 surface marker expression level / CD73 surface marker expression level / CD105 surface marker expression level: HADC100 ESC, SB525334 10 μM 5 days, GW788388 5 μM 5 days, ± standard deviation; for CD90 surface marker expression level: in %; for CD34 surface marker expression level / CD45 surface marker expression level / CD73 surface marker expression level / CD105 surface marker expression level: in % (unit assumed); for MSC differentiation / differentiating ES-MSC: overall statement of the discussion
Experimental: An overview of the differentiation process is provided in FIG. 1, panel K. To create cell clusters or embryoid bodies of uniform size, ESCs were removed from CellStart culture using Accutase® for 2-5 minutes until single cells were observed. […] After 24 hours, the cell clusters were suspended at 2.5-3×10^5 cells per ml in ultra-low adherent 6 well plates (Corning) in StemPro-34 serum free medium (ThermoFisher) supplemented with 2 mM L-glutamine (ThermoFisher Scientific), 50 μg/ml Ascorbic acid (Stemcell Technologies, Vancouver, Canada) and 1.8 μl/ml ITS-G (100× Insulin-Transferrin-Selenium; ThermoFisher); termed as “complete SP-34 medium”.
The medium was changed every 2 days by removing cell clusters into 15 ml sterile tubes and permitted to gravity settle for 10 minutes at room temperature. Most of the media was removed using a pipette to leave approximately 300-500 μl of medium. Freshly made medium (with the appropriate ALK5 inhibitor or DMSO) was replaced at the same volumes and well number into new ultra-low adherent plates.
After treatment with the appropriate ALK5 inhibitor, the cell clusters were removed by gravity settling and suspended in complete SP-34 medium supplemented with bFGF 20 ng/ml (without any ALK-5 inhibitor or DMSO) and transferred onto fibronectin (FN) coated (10 μg/ml; Fibronectin from human plasma, Sigma-Aldrich, St. Louis, MO) T75 cm^2 flasks (passage zero (P0)). The emerging cells and remaining cell clusters were exposed to Accutase® for 5-10 minutes, gently triturated and counted. The cells were seeded at […] in T75 FN coated flask (P1) and medium changed every 3-4 days until 80-90% confluence. At this point, the cells were detached using Accutase® for continued culture, screened for surface marker phenotype characterization (flow cytometry), placed into 3D cultures to assess chondrogenic differentiation capacity, or preserved in liquid nitrogen.
Cells were detached using Accutase®, washed and suspended in FACS buffer at a concentration of 0.2×10^6 cells per 100 μl. A panel of CD molecules were used, each with the following fluorochromes: CD34-FITC, CD45-BV510, CD73-APC (BioLegend, San Diego, California) CD90-PE-Cy7, and CD105-BV650 (BD Biosciences, Franklin Lakes, New Jersey). Matching isotype control IgGs with the same fluorochrome conjugates were used for background gating. For compensation of spectral overlap, unstained cells, and individual tubes with each fluorochrome were incubated with Dynabeads to distinguish between positive and negative fluorochrome signals. Data was acquired with the Novocyte flow cytometer (ACEA Biosciences Inc. San Diego, CA) and analyzed using FlowJo software (version 10, FlowJo, LLC, Ashland, OR) to determine percentage positive signal for each molecule relative to isotype background non-specific signal controls.

[3] = HADC 100 ES-MSC, SB431542 10 μM 10 days, N=4
[4] = N=4, SB431542 10 μM 10 days, listed as SB43
[5] = N=4, SB431542 10 μM 10 days, listed as SB52

SMILES	cartilaginous neo-tissue formation in ex vivo osteoarthritic explants [1]	CD73 positive cells ([2]; HADC 100 ES-MSC)	CD90 positive cells [2, 3] [%]	CD105 positive cells [2, 3] [%]	triple positive for CD73, CD90 and CD105 ([2]; HADC 100 ES-MSC) [%]	CD90 surface marker expression level ([2]; N=4, SB431542 10 μM 10 days)	CD34 surface marker expression level ([2]; N=4, SB431542 10 μM 10 days)	CD45 surface marker expression level ([2]; N=4, SB431542 10 μM 10 days)	CD73 surface marker expression level ([2]; N=4, SB431542 10 μM 10 days)	CD105 surface marker expression level ([2]; N=4, SB431542 10 μM 10 days)	CD90 surface marker expression level [2, 4]	CD105 surface marker expression level [2, 4]	MSC differentiation / differentiating ES-MSC [2]	CD90 surface marker expression level [2, 5]	CD105 surface marker expression level [2, 5]
NC(=O)c1ccc(-c2nc(-c3ccc4c(c3)OCO4)c(-c3ccccn3)[nH]2)cc1 [SB431542]	formed equally well	94±12% and 93.6±11.8%	88±10	86±7	88±8	87.6±10.4	1.8 ± 0.9	1.2 ± 0.5	93.6 ± 11.8	86.1±6.5	87.6 ± 10.4	86.1 ± 6.5	equally effective		
Cc1cccc(-c2[nH]c(C(C)(C)C)nc2-c2ccc3nccnc3c2)n1 [SB525334]	formed equally well				87±8	93.9±7.6	1.9 ± 0.9	1.5 ± 0.5	99.2 ± 1.0	85.4±12.2			successfully induced MSC differentiation; also recorded: equally effective	93.9 ± 7.6	85.4 ± 12.2
